Source: patent US9925193B2, “Thioether derivatives as protein kinase inhibitors” (KTB TUMORFORSCHUNGSGESELLSCHAFT MBH, priority 2012, dated 2018)

Legend:
AXL = target: T1, AXL (Homo sapiens, UniProt P30530); test: 33PanQinase Activity Assay, AXL; assay type: biochemical; details: recombinant human protein kinase, 1 μM [γ-33P]-ATP, 30° C. 80 minutes
T1 construct: made in house; host or cells: Sf9 insect cells (baculovirus)
T1 sequence (P30530 26-894): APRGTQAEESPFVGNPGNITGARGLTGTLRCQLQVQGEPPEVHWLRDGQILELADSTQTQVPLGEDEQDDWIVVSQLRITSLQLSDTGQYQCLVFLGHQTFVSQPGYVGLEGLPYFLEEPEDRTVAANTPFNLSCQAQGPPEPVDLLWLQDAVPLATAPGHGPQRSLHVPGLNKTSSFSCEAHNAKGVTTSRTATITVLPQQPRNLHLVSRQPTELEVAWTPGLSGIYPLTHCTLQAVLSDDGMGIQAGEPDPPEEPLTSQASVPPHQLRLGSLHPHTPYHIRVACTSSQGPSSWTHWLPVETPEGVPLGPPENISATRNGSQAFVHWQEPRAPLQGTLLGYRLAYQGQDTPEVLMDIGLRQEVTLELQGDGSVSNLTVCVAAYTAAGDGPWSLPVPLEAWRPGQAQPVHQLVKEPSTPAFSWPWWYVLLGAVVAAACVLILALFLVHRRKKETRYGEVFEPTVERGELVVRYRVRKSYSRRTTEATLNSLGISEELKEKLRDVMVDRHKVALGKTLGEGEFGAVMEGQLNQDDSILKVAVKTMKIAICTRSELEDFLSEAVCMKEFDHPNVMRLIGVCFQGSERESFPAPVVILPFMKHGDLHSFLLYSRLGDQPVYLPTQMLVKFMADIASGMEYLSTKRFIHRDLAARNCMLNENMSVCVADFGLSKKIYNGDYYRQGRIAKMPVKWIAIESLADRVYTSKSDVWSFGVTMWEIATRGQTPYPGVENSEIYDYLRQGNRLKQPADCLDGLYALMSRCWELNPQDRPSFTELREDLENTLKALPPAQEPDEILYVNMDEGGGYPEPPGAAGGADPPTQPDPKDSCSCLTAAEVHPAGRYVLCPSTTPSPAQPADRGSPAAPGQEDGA
Description: (§1) The effect of the thioether derivatives 8a-v and 9a-i was tested on recombinant, human protein kinases. All protein kinases were expressed in Sf9 insect cells as human recombinant GST-fusion proteins or as His-tagged proteins by means of the baculovirus expression system. Protein kinases were purified by affinity chromatography using either GSH-agarose or Ni-NTH-agarose. The purity and identity of each was checked by SDS-PAGE/silver staining and by western blot analysis with specific antibodies.
(§2) A proprietary protein kinase assay (^33PanQinase® Activity Assay) was used for measuring the kinase activity. All kinase assays were performed in 96-well FlashPlates™ in a 50 μl reaction volume. The assay for all enzymes contained 60 mM HEPES-NaOH, pH 7.5, 3 mM MgCl2, 3 mM MnCl2, 3 μM Na-orthovanadate, 1.2 mM DTT, 50 μg/ml PEG20000 and 1 μM [γ-^33P]-ATP (approx. 5×10^5 cpm per well).
(§3) The reaction cocktails were incubated at 30° C. for 80 minutes. The reaction was stopped with 50 μl of 2% (v/v) H3PO4, plates were aspirated and washed two times with 200 μl of 0.9% (w/v) NaCl. Incorporation of ^33Pi was determined with a microplate scintillation counter. All assays were performed with a BeckmanCoulter/Sagian robotic system.

ALK = target: T2, ALK (Homo sapiens, UniProt Q9UM73); test: 33PanQinase Activity Assay, ALK; assay type: biochemical; details: recombinant human protein kinase, 1 μM [γ-33P]-ATP, 30° C. 80 minutes
T2 construct: made in house; host or cells: Sf9 insect cells (baculovirus)
Description: as §1, §2, §3

SRC = target: T3, SRC (Homo sapiens, UniProt P12931); test: 33PanQinase Activity Assay, SRC; assay type: biochemical; details: recombinant human protein kinase, 1 μM [γ-33P]-ATP, 30° C. 80 minutes
T3 construct: made in house; host or cells: Sf9 insect cells (baculovirus)
Description: as §1, §2, §3

PRK1 = target: T4, PRK1 (Homo sapiens, UniProt Q16512); test: 33PanQinase Activity Assay, PRK1; assay type: biochemical; details: recombinant human protein kinase, 1 μM [γ-33P]-ATP, 30° C. 80 minutes
T4 construct: made in house; host or cells: Sf9 insect cells (baculovirus)
Description: as §1, §2, §3

PIM1 = target: T5, PIM1 (Homo sapiens, UniProt P11309); test: 33PanQinase Activity Assay, PIM1; assay type: biochemical; details: recombinant human protein kinase, 1 μM [γ-33P]-ATP, 30° C. 80 minutes
T5 construct: made in house; host or cells: Sf9 insect cells (baculovirus)
Description: as §1, §2, §3

IGF1-R = target: T6, IGF1-R (Homo sapiens, UniProt P08069); test: 33PanQinase Activity Assay, IGF1-R; assay type: biochemical; details: recombinant human protein kinase, 1 μM [γ-33P]-ATP, 30° C. 80 minutes
T6 construct: made in house; host or cells: Sf9 insect cells (baculovirus)
Description: as §1, §2, §3

VEGF-R2 = target: T7, VEGF-R2 (Homo sapiens, UniProt P35968); test: 33PanQinase Activity Assay, VEGF-R2; assay type: biochemical; details: recombinant human protein kinase, 1 μM [γ-33P]-ATP, 30° C. 80 minutes
T7 construct: made in house; host or cells: Sf9 insect cells (baculovirus)
Description: as §1, §2, §3

FAK = target: T8, FAK (Homo sapiens, UniProt Q05397); test: 33PanQinase Activity Assay, FAK; assay type: biochemical; details: recombinant human protein kinase, 1 μM [γ-33P]-ATP, 30° C. 80 minutes
T8 construct: made in house; host or cells: Sf9 insect cells (baculovirus)
Description: as §1, §2, §3

[1] = target: T9, ALK, AXL, FAK, KIT wt, IGF1-R, PIM1, PRK1, SRC and VEGF-R2; test: 33PanQinase Activity Assay, kinase panel summary; assay type: biochemical, human; details: at least two kinases of the panel; read-out: IC50 values on at least two kinases from at least two different molecular mechanisms of tumor progression
T9 construct: other: at le; fused on or other part: GST or His tag
Description: as §1, §2, §3
Thioether derivatives 8a-v and 9a-i show excellent IC50 values.

T4 sequence (Q16512 whole entry): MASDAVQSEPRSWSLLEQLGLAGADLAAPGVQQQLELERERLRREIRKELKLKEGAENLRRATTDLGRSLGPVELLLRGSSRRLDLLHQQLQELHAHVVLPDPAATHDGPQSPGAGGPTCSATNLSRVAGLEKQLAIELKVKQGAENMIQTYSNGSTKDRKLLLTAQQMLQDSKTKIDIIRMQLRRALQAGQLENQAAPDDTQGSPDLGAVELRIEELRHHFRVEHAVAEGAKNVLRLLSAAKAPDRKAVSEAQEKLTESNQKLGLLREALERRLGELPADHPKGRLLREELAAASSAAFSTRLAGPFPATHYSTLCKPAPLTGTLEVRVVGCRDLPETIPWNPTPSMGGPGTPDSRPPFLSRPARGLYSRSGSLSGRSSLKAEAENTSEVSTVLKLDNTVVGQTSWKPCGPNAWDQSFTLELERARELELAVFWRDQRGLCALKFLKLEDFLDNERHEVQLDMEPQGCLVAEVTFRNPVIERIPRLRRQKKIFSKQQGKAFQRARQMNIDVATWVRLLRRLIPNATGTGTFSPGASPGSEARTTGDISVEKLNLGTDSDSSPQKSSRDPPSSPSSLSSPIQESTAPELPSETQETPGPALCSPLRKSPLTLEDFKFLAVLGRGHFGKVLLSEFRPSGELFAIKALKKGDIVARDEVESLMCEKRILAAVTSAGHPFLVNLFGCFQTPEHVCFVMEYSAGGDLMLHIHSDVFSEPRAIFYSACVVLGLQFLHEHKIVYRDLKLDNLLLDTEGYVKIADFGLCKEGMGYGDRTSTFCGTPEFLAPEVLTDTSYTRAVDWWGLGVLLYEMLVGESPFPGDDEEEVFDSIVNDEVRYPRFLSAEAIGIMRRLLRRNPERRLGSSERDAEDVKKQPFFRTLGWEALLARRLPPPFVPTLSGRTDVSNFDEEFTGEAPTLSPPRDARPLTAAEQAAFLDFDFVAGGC
T5 sequence (P11309 whole entry): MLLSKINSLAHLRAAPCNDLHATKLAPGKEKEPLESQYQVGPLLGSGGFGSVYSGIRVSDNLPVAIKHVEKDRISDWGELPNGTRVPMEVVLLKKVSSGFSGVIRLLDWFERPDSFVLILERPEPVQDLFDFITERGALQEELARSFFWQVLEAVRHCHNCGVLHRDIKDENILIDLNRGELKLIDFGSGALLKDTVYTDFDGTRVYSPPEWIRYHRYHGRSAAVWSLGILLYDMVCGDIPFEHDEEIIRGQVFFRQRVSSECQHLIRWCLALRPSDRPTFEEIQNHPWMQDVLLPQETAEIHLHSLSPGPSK
T7 sequence (P35968 20-1356): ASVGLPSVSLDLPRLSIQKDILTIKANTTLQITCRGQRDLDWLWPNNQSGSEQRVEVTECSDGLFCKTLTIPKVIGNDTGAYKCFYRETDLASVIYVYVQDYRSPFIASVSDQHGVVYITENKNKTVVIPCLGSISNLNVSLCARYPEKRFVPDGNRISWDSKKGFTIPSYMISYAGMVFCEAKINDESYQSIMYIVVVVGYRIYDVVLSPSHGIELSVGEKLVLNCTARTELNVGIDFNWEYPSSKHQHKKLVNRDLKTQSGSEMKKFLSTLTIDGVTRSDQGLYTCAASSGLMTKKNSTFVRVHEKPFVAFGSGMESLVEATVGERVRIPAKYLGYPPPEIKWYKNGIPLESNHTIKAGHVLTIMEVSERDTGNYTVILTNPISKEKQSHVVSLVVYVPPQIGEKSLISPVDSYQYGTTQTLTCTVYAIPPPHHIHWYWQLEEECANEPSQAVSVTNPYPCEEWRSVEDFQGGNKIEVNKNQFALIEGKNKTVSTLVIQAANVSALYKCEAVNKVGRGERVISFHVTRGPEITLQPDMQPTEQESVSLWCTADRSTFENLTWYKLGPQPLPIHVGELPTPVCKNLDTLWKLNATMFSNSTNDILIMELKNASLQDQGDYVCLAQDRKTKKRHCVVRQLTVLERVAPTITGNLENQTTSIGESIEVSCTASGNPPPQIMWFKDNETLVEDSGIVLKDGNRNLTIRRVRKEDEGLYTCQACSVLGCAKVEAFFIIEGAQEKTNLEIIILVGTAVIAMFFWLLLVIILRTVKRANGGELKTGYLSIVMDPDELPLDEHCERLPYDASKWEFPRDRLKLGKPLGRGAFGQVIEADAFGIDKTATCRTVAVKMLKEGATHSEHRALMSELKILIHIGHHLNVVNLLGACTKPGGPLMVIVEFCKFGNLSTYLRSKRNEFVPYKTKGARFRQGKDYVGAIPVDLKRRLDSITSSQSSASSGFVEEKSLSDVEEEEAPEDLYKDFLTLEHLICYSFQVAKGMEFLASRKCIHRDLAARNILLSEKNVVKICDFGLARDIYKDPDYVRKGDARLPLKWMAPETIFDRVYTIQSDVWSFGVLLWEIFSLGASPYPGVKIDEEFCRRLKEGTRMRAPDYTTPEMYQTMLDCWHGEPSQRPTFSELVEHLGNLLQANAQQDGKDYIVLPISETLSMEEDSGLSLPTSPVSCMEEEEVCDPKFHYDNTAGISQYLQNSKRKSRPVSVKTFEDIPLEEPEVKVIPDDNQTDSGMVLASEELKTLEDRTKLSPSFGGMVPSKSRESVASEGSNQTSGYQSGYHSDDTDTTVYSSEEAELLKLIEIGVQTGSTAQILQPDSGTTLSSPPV
T3 sequence (P12931 whole entry): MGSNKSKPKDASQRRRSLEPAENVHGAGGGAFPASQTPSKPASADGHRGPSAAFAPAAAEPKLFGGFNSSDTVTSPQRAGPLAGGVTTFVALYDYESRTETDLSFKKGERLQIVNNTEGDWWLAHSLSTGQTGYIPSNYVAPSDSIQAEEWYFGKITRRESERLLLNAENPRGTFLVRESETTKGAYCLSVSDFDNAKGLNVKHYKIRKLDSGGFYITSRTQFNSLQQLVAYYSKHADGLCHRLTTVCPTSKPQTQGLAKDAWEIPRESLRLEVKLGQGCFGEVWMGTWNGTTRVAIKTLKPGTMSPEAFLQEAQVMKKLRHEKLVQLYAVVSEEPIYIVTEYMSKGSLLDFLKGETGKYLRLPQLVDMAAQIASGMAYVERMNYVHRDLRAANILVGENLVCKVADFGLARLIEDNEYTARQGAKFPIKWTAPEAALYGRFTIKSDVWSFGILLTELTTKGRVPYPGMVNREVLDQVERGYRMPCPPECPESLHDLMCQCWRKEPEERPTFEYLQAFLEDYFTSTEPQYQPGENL
T8 sequence (Q05397 whole entry): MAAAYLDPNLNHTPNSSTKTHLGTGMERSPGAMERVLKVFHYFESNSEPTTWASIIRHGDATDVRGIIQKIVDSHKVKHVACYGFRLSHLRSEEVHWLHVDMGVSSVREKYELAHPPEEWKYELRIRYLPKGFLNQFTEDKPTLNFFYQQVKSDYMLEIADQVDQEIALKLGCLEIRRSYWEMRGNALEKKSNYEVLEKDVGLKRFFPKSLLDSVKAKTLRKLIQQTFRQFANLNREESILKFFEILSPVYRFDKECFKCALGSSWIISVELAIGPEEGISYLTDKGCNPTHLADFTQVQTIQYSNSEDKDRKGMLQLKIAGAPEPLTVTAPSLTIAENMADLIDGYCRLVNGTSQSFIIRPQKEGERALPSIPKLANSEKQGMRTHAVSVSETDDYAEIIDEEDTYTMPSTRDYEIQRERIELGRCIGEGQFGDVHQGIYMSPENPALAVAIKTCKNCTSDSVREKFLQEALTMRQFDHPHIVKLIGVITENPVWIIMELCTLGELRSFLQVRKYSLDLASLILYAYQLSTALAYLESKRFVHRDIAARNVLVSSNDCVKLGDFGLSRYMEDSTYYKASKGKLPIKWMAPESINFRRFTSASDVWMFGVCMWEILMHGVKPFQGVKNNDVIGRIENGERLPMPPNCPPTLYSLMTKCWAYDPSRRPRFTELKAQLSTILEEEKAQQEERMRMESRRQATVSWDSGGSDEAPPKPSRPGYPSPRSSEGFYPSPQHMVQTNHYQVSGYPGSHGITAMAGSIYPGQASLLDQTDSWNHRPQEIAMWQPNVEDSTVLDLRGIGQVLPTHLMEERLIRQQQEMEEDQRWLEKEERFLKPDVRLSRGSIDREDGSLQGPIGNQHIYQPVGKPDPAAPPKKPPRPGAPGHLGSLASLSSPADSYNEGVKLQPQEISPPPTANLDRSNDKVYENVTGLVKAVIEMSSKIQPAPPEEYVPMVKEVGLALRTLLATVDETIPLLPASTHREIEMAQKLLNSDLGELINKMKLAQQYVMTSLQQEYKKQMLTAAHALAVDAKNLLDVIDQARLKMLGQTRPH

Row | Compound | melting point | IC50 (AXL) | IC50 (ALK) | IC50 (SRC) | IC50 (PRK1) | IC50 (PIM1) | IC50 (IGF1-R) | IC50 (VEGF-R2) | IC50 (FAK) | IC50 [1]
1 | Fc1ccc(-c2cc3ncnc(Sc4nnc(-c5ccc(C(F)(F)F)cc5)o4)c3s2)cc1 [Compound 8e, 2-{[6-(4-Fluorophenyl)thieno[3,2-d]pyrimidin-4-yl]thio}-5-[4-(trifluoromethyl)-phenyl]-1,3,4-oxadiazole] | 233 to 235 °C | 2.51 µM | 977 nM | 540 nM | 15.4 µM | 8.68 µM | 1030 nM | 1410 nM | 1960 nM | 
2 | COc1cccc(Cc2nnc(Sc3ncnc4cc(-c5ccc(F)cc5)sc34)o2)c1 [Compound 8f, 2-{[6-(4-Fluorophenyl)thieno[3,2-d]pyrimidin-4-yl]thio}-5-(3-methoxybenzyl)-1,3,4-oxadiazole] | 166 to 168 °C | 3.2 µM | 651 nM | 487 nM | 14.6 µM | 10.4 µM | 1270 nM | 1470 nM | 1280 nM | 
3 | Fc1ccc(-c2cc3ncnc(Sc4ccc(C(F)(F)F)cc4)c3s2)cc1 [Compound 8h, 6-(4-Fluorophenyl)-4-{[4-(trifluoromethyl)phenyl]thio}thieno[3,2-d]pyrimidine] | 172 to 175 °C | 2.94 µM | 1030 nM | 681 nM | 33.9 µM | 11.3 µM | 1370 nM | 1840 nM | 2040 nM | 
4 | Fc1ccc(-c2cc3ncnc(Sc4ncc[nH]4)c3s2)cc1 [Compound 8i, 4-[(1H-imidazol-2-yl)thio]-6-(4-fluorophenyl)thieno[3,2-d]pyrimidine] | 204 to 206 °C | 41.5 µM | 23700 nM | 11000 nM | 86.1 µM | 11.1 µM | 23100 nM | 20800 nM | 22100 nM | 

Second part, the compound after the results:

Row | melting point | IC50 (AXL) | IC50 (ALK) | IC50 (SRC) | IC50 (PRK1) | IC50 (PIM1) | IC50 (IGF1-R) | IC50 (VEGF-R2) | IC50 (FAK) | IC50 [1] | Compound
5 | 172 to 174 °C | 22.6 µM | 6630 nM | 6350 nM | 47.3 µM |  | 9150 nM | 9690 nM | 9080 nM |  | Fc1ccc(-c2cc3ncnc(Sc4ccccn4)c3s2)cc1 [Compound 8j, 6-(4-Fluorophenyl)-4-(pyridin-2-ylthio)thieno[3,2-d]pyrimidine]
6 |  | 3.14 µM | 1150 nM | 875 nM | 38 µM | 13.7 µM | 1500 nM | 2240 nM | 3010 nM |  | Fc1ccc(-c2cc3ncnc(Sc4nnc(Cc5ccccc5)o4)c3s2)cc1 [Compound 8l, 2-Benzyl-5-{[6-(4-fluorophenyl)thieno[3,2-d]pyrimidin-4-yl]thio}-1,3,4-oxadiazole]
7 | 256 to 257 °C | > 100 µM | 860 nM | 700 nM |  |  |  |  | 930 nM | < 10 µM | FC(F)(F)c1ccc(-c2nnc(Sc3ncnc4[nH]c(-c5ccccc5)nc34)o2)cc1 [Compound 8v, 2-[(8-Phenyl-9H-purin-6-yl)thio]-5-[4-(trifluoromethyl)phenyl]-1,3,4-oxadiazole]
